In US8563054B2, “Anti-inflammatory agent” (Maruzen Pharmaceuticals Co., Ltd., priority 2005, dated 2013):
Values after ≈ are worked out from the molar mass of the structure shown.

Columns and labels:
[1] = target: T1, hyaluronidase (Type IV-S, from bovine testis) (Bos taurus, UniProt Q2YDK3); assay: Hyaluronidase activity inhibition assay; type: biochemical; details: pH 3.5, 37° C., by interpolation
T1 construct: hyaluronidase solution (Type IV-S (from bovine testis))
T1 sequence (Q2YDK3 1-553): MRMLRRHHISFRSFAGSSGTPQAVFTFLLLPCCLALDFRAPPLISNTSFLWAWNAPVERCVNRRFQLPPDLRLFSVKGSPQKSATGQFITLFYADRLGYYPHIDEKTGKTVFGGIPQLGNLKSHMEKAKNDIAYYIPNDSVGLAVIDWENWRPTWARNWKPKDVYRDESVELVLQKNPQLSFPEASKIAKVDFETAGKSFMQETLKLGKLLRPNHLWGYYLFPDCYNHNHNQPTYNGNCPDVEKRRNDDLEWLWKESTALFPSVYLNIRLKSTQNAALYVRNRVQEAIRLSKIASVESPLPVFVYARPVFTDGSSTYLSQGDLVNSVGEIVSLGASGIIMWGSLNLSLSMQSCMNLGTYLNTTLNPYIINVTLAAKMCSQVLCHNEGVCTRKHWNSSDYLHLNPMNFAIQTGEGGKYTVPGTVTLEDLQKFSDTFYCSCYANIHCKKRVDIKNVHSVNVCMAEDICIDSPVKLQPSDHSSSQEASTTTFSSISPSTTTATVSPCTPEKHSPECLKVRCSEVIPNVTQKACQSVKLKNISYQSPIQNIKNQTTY
Protocol: For the extracts and purified materials prepared in Production Examples 1 to 5 (hereinafter, may be referred to as “sample”), inhibitory effect on hyaluronidase activity was tested as follows.
First, 0.1 mL of hyaluronidase solution (Type IV-S (from bovine testis; SIGMA 400 NF units/mL) was added to 0.1 mol/L acetic acid buffer (pH 3.5) in which each sample was dissolved, and allowed to react at 37° C. for 20 minutes.
Next, 0.2 mL of 2.5 mmol/L calcium chloride was added as an activating agent and allowed to react at 37° C. for 20 minutes. To this solution, 0.5 mL of 0.4 mg/mL potassium hyaluronate solution (from rooster comb) was added and allowed to react at 37° C. for 40 minutes. […] After that, absorbance at the wavelength of 585 nm was determined.
Next, similar operations and absorbance determination were performed without addition of enzyme. Further, as a control, using distillated water instead of sample solution, similar operations and absorbance determination were performed.
From the results of the measurements mentioned above, the percentage inhibition of hyaluronidase activity was calculated according to the following formula 1: % Inhibition of hyaluronidase activity=[1−(St−Sb)/(Ct−Cb)]×100 <Formula 1> […]
Next, the sample concentration was reduced in a stepwise manner, and the above-mentioned percentage inhibition of hyaluronidase activity was measured. […]

[2] = test system: rabbit washed platelet suspension; assay: Platelet aggregation inhibitory effect (collagen-induced, washed platelets); type: cell-based; details: collagen as aggregation inducing agent, by interpolation
Protocol: For the extracts and purified materials prepared in Production Examples 1 to 5 (hereinafter, may be referred to as “sample”), inhibitory effect on platelet aggregation was tested as follows.
First, rabbit blood, which was collected with the addition of 1/10 amount of 77 mmol/L EDTA (pH 7.4), was centrifuged (180×g, 10 minutes, room temperature) to obtain platelet suspension. Next, the platelet suspension was centrifuged (810×g, 10 minutes, 4° C.), and the supernatant was removed to obtain platelet. This was suspended in platelet washing solution (0.15 mol/L sodium chloride: 0.15 mol/L Tris-HCL buffer (pH 7.4): 77 mmol/L EDTA (pH7.4)=90:8:2), centrifuged in the same way as mentioned above. […]
Next, to 222 μL of the prepared washed platelet suspension, 1 μL of 200 mmol/L calcium chloride solution was added and allowed to react at 37° C. for 1 minute. […] Separately, rate of platelet aggregation, B, was determined in a similar operation to that mentioned above except that the solvent of sample solution was added instead of the sample solution. % Inhibition of platelet aggregation=[(B−A)/B]×100 <Formula 3> […]
Next, the sample concentration was reduced in a stepwise manner, and the above-mentioned percentage inhibition of platelet aggregation was measured. The sample concentration, at which 50% of platelet aggregation is inhibited, was determined by interpolation. […]

[3] = test system: rat basophilic leukemia cells (RBL-2H3); assay: Assay of inhibitory effect on hexosaminidase release (indicator of histamine release); type: cell-based; details: RBL-2H3, DNP-specific IgE / DNP-BSA stimulation; by interpolation
Protocol: For the extracts and purified materials prepared in Production Examples 1 to 5 (hereinafter, may be referred to as “sample”), inhibitory effect on hexosaminidase release was tested as follows. Since hexosaminidase is also released simultaneously upon release of to histamine inside a cell, the inhibitory effect on histamine release can be evaluated using hexosaminidase release as an indicator of histamine release.
First, rat basophilic leukemia cells (RBL-2H3) were cultured using a medium (S-MEM medium with 15% FBS; hereinafter the same) placed in 25 mL culture flasks, and then cells were collected by trypsin treatment. […]
Then, release was stopped by leaving the 96 well plate at rest on ice. […] After completion of the reaction, 250 μL of 0.1 mol/L Na2CO3/NaHCO3 was added to each well, and the absorbance at the wavelength of 415 nm was determined.
Next, as a blank test, the absorbance of a mixture of 10 μl it of cell supernatant and 250 μL of 0.1 mol/L Na2CO3/NaHCO3 at the wavelength of 415 nm was determined and was used for correction.
From the results of the measurements mentioned above, the percentage inhibition of hexosaminidase release was determined according to the following formula 2: % Inhibition of hexosaminidase release=[1−(B−C)/A]×100 <Formula 2> […]

Row | SMILES | IC50 ([1]; read-out: Sample concentration for 50% inhibition of hyaluronidase activity (converted)) [µM] | IC50 ([2]; Oryctolagus cuniculus, Platelet, read-out: Sample concentration for 50% inhibition of platelet aggregation) [µg/mL] | Sample concentration for 50% inhibition of hyaluronidase activity [1] [µg/mL] | Sample concentration for 50% inhibition of platelet aggregation [2] [µg/mL] | Sample concentration for 50% inhibition of hexosaminidase release [3] [µg/mL]
1 | CC1(C)C=Cc2c(ccc3c2OC[C@@H](c2ccc(O)cc2O)C3)O1 [Glabridin of Production Example 4, glabridin] | 56.4 | 400 (≈ 1230 µM) |  |  | 
2 | C=CC(C)(C)c1cc(/C=C/C(=O)c2ccc(O)cc2)c(OC)cc1O [Licochalcone A of Production Example 5, licochalcone A] |  |  | 17.2 | 79.7 | 23.5
